# Columns and labels:
# Test in all cases: SPR
# [1] = test system: ATATAT (DNA, hairpin) CCATATATGCTCTCATATATGG; details: Na+ 100 mM, 50 mM Tris-HCl, 1 mM EDTA, pH 7.4, 25 °C
# [2] = test system: AAAGTTT (DNA, hairpin) CCAAAGTTTGCTCTCAAACTTTGG; details: Na+ 100 mM, 50 mM Tris-HCl, 1 mM EDTA, pH 7.4, 25 °C
# [3] = test system: AAAAAA (DNA, hairpin) CCAAAAAAGCTCTCTTTTTTGG; details: Na+ 100 mM, 50 mM Tris-HCl, 1 mM EDTA, pH 7.4, 25 °C
# [4] = test system: AAATTT (DNA, hairpin) CCAAATTTGCTCTCAAATTTGG; details: Na+ 100 mM, 50 mM Tris-HCl, 1 mM EDTA, pH 7.4, 25 °C
# [5] = test system: AATAAT (DNA, hairpin) CCAATAATGCTCTCATTATTGG; details: Na+ 100 mM, 50 mM Tris-HCl, 1 mM EDTA, pH 7.4, 25 °C
# [6] = test system: AAAGAAA (DNA, hairpin) CCAAAGAAAGCTCTCTTTCTTTGG; details: Na+ 100 mM, 50 mM Tris-HCl, 1 mM EDTA, pH 7.4, 25 °C
# [7] = test system: AATGAAT (DNA, hairpin) CCAATGAATGCTCTCATTCATTGG; details: Na+ 100 mM; 50 mM Tris-HCl, 1 mM EDTA, pH 7.4, 25 °C
# [8] = test system: ATAGTAT (DNA, hairpin) CCATAGTATGCTCTCATACTATGG; details: Na+ 100 mM; 50 mM Tris-HCl, 1 mM EDTA, pH 7.4, 25 °C
# [9] = test system: AAAGCTTT (DNA, hairpin) CCAAAGCTTTGCTCTCAAAGCTTTGG; details: Na+ 100 mM; 50 mM Tris-HCl, 1 mM EDTA, pH 7.4, 25 °C
# [10] = test system: AAAGCAAA (DNA, hairpin) CCAAAGCAAAGCTCTCTTTGCTTTGG; details: Na+ 100 mM, 50 mM Tris-HCl, 1 mM EDTA, pH 7.4, 25 °C
# [11] = test system: AATGCAAT (DNA, hairpin) CCAATGCAATGCTCTCATTGCATTGG; details: Na+ 100 mM; 50 mM Tris-HCl, 1 mM EDTA, pH 7.4, 25 °C
# [12] = test system: ATAGCTAT (DNA, hairpin) CCATAGCTATGCTCTCATAGCTATGG; details: Na+ 100 mM; 50 mM Tris-HCl, 1 mM EDTA, pH 7.4, 25 °C
KD [1] [nM],KD [2] [nM],KD [3] [nM],KD [4] [nM],KD ([5]; Figure S2 prints 344 nM) [nM],binding ([6]; NB [sic]),KD [7] [nM],binding ([1]; NB [sic]),KD [8] [nM],KD ([2]; text b19 gives 1.8 nM) [nM],KD [9] [nM],binding ([3]; NB [sic]),binding ([10]; NB [sic]),binding ([5]; NB [sic]),KD [6] [nM],KD [11] [nM],KD [12] [nM],KD [10] [nM],KD [5] [nM],binding ([4]; NB [sic]),SMILES
,,,374,,,24,no,68,1.4,58,no,no,no,19,1176,719,,,,N=C(N)c1ccc(OCc2cccc(COc3ccc(C(=N)N)cc3)n2)cc1
,52,,,,,689,,,,1025,,,,,,,,,,N=C(N)c1ccc(OCc2cccc(COc3ccc(C(N)=O)cc3)n2)cc1

# Continued, compound first:
SMILES,KD [1] [nM],KD [2] [nM],KD [3] [nM],KD [4] [nM],KD ([5]; Figure S2 prints 344 nM) [nM],binding ([6]; NB [sic]),KD [7] [nM],binding ([1]; NB [sic]),KD [8] [nM],KD ([2]; text b19 gives 1.8 nM) [nM],KD [9] [nM],binding ([3]; NB [sic]),binding ([10]; NB [sic]),binding ([5]; NB [sic]),KD [6] [nM],KD [11] [nM],KD [12] [nM],KD [10] [nM],KD [5] [nM],binding ([4]; NB [sic])
N=C(N)c1ccc(OCc2cccc(COc3ccc(C(=N)N)cc3)c2)cc1,344,900,261,84,117,no,,,,,,,,,,,,,,
c1cc(COc2ccc(C3=NCCCN3)cc2)nc(COc2ccc(C3=NCCCN3)cc2)c1,709,1,1111,138,,,5.7,,33.6,,27,,,,4.6,534,256,653,141,
c1cc(COc2ccc(C3=NCCN3)cc2)nc(COc2ccc(C3=NCCN3)cc2)c1,,3.6,,,,,101,,227,,123,,,,43,,1000,,,no

# From PMC9147024 (2022)
